Test results from ChEMBL document CHEMBL5244220, “Methyl-containing pharmaceuticals: Methylation in drug design” (Bioorg Med Chem Lett, 2018).

Key:
Aspergillus fumigatus = experiment: Antifungal activity against Aspergillus fumigatus assessed as inhibition of fungal growth; format: functional
[1] = Oral bioavailability in rat; format: ADME, organism-based; settings: in vivo
[2] = Aqueous solubility of compound; format: physicochemical
[3] = Apparent permeability across apical to basolateral side in human Caco-2 cells; format: ADME, cell-based
[4] = molecular target: GABA-A receptor; anion channel; experiment: Positive allosteric modulator activity at human GABAA receptor measured by [35S]TBPS based functional assay; format: protein-complex assay
Orexin receptor type 2 = molecular target: T1, Orexin receptor type 2 (Homo sapiens, UniProt O43614); experiment: Antagonist activity at human OX2R by FLIPR assay
T1 sequence (O43614 whole entry): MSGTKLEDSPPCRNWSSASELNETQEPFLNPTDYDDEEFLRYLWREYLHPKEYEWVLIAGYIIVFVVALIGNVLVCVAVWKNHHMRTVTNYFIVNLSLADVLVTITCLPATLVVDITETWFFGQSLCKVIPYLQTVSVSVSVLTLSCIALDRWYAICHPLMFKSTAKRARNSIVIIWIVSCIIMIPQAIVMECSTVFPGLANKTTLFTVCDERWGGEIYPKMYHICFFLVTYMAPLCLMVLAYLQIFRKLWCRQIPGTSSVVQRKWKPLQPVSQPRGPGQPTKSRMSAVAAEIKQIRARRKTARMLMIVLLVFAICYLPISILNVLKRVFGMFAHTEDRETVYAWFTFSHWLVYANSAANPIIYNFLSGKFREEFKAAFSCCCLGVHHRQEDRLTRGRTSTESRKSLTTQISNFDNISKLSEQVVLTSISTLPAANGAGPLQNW

[5] = molecular target: T2, Orexin/Hypocretin receptor type 1 (Homo sapiens, UniProt O43613); experiment: Antagonist activity at human OX1R by FLIPR assay
T2 sequence (O43613 whole entry): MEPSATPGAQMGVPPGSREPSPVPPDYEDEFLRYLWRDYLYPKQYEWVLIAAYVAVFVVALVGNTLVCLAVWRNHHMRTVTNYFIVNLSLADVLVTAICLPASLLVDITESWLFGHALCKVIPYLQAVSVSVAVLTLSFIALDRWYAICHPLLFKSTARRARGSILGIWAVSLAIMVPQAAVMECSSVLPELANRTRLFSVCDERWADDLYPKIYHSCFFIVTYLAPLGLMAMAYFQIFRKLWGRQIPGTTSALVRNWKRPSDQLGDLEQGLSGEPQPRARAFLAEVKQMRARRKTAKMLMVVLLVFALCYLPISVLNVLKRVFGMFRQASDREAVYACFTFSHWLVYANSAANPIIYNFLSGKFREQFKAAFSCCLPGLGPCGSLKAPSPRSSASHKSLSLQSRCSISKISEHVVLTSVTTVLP

Protein kinase C (PKC) = experiment: Inhibition of PKC (unknown origin); format: protein assay, Homo sapiens
[6] = molecular target: cAMP-dependent protein kinase (PKA) (Homo sapiens, UniProt P22694+P17612+P22612); experiment: Inhibition of PKA (unknown origin); format: protein assay
[7] = molecular target: Platelet-derived growth factor receptor beta (Mus musculus, UniProt P05622); experiment: Inhibition of PDGFR phosphorylation in BALB/c mouse 3T3 by Western blot analysis; format: cell-based
Chain of Platelet-derived growth factor receptor beta (P05622 whole entry): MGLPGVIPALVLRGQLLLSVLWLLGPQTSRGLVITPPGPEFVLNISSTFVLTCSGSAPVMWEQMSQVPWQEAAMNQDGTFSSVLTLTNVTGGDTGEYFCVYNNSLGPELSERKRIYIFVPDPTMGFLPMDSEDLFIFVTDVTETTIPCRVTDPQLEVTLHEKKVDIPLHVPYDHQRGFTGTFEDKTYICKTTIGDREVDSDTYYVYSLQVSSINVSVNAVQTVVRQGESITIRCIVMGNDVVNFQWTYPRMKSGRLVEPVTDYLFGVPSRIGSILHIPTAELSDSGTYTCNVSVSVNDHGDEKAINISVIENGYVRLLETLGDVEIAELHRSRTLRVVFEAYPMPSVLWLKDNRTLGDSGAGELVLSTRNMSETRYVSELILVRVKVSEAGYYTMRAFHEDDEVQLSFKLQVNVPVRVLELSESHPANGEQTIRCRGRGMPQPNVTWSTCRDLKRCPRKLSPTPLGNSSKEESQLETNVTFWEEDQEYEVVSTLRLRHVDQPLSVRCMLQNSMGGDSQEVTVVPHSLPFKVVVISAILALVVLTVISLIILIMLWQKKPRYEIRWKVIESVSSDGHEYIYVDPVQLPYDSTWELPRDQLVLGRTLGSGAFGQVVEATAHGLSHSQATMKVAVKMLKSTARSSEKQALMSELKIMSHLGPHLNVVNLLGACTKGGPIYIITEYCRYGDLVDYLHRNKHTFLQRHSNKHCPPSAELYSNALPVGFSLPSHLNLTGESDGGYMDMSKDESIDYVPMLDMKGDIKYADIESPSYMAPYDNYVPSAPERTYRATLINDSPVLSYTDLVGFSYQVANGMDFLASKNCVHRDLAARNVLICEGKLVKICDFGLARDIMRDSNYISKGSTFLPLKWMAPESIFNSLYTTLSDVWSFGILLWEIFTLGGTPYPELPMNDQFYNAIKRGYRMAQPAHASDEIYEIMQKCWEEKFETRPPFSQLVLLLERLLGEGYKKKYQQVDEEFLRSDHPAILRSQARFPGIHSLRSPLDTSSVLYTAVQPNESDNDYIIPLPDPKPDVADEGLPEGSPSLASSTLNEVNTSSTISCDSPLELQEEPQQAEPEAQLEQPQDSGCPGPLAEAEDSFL

BCR/ABL1 = BCR/ABL1 (Mus musculus, UniProt P00520); experiment: Inhibition of Bcr-Abl phosphorylation in BALB/c mouse 3T3 by Western blot analysis; format: cell-based
Chain of BCR/ABL1 (P00520 whole entry): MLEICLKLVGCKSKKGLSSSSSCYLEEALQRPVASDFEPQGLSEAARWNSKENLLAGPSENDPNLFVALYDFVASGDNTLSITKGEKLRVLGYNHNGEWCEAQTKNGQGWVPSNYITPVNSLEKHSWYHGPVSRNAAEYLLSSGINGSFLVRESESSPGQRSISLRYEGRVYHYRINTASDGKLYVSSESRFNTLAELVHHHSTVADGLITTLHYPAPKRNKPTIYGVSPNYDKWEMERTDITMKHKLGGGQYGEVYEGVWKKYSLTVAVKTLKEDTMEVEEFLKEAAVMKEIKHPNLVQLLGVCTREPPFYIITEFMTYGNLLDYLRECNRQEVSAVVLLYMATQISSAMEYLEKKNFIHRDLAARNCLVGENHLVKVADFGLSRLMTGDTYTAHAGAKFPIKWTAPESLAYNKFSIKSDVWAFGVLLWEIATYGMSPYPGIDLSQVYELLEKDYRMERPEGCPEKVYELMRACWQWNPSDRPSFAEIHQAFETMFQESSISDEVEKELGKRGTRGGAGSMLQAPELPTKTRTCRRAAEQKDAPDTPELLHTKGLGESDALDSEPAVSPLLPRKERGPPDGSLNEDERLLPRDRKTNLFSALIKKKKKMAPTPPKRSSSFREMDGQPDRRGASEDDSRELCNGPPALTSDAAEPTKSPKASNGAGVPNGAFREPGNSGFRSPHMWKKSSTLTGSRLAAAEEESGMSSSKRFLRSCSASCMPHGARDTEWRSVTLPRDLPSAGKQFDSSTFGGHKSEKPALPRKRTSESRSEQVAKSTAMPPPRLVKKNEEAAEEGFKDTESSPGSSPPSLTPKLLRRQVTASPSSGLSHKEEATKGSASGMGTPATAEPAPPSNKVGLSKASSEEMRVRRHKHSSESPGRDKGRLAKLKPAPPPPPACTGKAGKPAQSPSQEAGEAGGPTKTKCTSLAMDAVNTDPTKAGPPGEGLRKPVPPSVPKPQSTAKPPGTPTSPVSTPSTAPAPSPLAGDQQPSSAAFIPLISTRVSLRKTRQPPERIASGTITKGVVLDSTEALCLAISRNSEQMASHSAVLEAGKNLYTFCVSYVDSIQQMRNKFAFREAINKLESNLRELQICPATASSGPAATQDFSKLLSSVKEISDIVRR
Chain of BCR/ABL1 (Q6PAJ1 whole entry, further chain): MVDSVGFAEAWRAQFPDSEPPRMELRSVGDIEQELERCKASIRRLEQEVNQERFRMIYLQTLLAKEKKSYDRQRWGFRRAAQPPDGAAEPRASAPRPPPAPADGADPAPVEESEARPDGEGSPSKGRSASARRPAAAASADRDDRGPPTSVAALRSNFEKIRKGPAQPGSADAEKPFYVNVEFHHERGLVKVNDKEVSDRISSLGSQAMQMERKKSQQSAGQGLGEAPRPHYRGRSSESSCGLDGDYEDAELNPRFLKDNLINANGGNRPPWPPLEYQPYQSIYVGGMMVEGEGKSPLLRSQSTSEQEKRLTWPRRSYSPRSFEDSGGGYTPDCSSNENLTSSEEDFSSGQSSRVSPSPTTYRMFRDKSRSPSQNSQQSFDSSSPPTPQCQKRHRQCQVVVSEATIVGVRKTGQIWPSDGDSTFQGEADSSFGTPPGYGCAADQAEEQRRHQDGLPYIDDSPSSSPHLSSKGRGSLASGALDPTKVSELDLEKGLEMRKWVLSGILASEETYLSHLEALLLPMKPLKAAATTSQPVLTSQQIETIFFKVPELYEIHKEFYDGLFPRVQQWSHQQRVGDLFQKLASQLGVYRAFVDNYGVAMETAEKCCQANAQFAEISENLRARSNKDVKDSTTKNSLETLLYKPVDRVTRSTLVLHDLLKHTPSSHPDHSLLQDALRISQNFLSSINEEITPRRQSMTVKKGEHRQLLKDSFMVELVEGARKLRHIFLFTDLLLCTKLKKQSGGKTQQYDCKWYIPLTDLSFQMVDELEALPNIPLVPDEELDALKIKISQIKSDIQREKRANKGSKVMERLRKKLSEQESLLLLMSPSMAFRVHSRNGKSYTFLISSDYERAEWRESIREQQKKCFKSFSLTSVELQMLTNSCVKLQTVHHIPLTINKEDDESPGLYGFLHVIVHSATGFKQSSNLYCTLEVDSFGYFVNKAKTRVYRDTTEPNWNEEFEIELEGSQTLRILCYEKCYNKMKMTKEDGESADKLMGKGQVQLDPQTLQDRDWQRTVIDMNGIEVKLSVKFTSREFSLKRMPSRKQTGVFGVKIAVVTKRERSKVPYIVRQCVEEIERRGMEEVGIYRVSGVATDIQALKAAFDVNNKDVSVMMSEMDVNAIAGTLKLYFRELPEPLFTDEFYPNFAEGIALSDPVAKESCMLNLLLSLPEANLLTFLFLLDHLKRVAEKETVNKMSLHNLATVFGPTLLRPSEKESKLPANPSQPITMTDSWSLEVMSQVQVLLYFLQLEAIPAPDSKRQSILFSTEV

[8] = Half life in rat plasma; format: ADME, cell-free
[9] = Oral bioavailability in Sprague-Dawley rat at 2 mg/kg; format: ADME, organism-based; settings: in vivo
[10] = Oral bioavailability in Beagle dog at 0.5 mg/kg; format: ADME, organism-based, Canis lupus familiaris; settings: in vivo
[11] = Terminal half life in po dosed human; format: ADME, organism-based; settings: in vivo, read-out: beta t1/2 (converted)
[12] = Terminal half life in po dosed rat; format: ADME, organism-based; settings: in vivo, read-out: beta t1/2 (converted)
[13] = Terminal half life in po dosed dog; format: ADME, organism-based, Canis lupus familiaris; settings: in vivo, read-out: beta t1/2 (converted)
[14] = Terminal half life in po dosed mouse; format: ADME, organism-based; settings: in vivo, read-out: beta t1/2 (converted)
[15] = molecular target: T3, 3-hydroxy-3-methylglutaryl-coenzyme A reductase (Rattus norvegicus, UniProt P51639); experiment: Inhibition of rat liver HMG-CoA reductase pre incubated for 5 mins followed by substrate addition using NADPH as substrate by scintillation counter analysis; format: tissue-based
T3 sequence (P51639 whole entry): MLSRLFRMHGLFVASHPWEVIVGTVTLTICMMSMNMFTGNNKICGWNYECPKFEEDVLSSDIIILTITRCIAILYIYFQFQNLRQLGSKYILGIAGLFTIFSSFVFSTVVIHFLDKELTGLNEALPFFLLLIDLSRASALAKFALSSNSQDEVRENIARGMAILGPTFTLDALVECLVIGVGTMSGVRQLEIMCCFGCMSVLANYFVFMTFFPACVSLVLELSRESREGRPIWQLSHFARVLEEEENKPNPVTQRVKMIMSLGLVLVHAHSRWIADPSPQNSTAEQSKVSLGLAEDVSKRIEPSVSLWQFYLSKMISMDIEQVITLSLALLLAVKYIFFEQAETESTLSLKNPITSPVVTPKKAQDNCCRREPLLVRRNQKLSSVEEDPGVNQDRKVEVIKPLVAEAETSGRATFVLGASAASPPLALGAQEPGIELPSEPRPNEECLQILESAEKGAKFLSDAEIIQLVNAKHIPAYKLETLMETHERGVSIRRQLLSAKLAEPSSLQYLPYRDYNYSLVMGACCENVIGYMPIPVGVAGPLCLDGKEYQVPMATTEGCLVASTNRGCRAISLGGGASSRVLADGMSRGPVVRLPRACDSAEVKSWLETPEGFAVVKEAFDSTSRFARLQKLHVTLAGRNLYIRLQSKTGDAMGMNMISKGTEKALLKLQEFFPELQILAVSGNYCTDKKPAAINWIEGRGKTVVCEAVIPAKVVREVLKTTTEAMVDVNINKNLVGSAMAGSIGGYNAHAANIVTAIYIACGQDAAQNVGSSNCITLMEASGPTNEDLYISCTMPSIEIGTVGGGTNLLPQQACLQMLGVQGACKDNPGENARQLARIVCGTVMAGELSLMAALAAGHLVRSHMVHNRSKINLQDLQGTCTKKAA

clinical = settings: human, plasma, po, 100 mg
[16] = Half life in Sprague-Dawley rat plasma at 20 mg/kg, po; format: ADME, organism-based

OC(Cn1cncn1)(Cn1cncn1)c1ccc(F)cc1
MIC (Aspergillus fumigatus): > 50 µg/mL

CC(c1ccncc1)n1[nH]c(=O)c2[nH]c3cc(Cl)ccc3c(=O)c2c1=O (configuration not stated)
bioavailability [1]: 30% | solubility [2]: > 290 µg/mL

O=c1[nH]n(Cc2ccncc2)c(=O)c2c(=O)c3ccc(Cl)cc3[nH]c12
Papp A→B [3]: 0.2 ×10⁻⁶ cm/s

CC(=O)[C@H]1CCC2C3CC[C@H]4C[C@H](O)CC[C@]4(C)C3CC[C@@]21C (some centres not stated)
IC50 [4]: 51 nM

Cc1ccc(-n2nccn2)c(C(=O)N2CCC[C@@H](COc3ccc(F)cn3)C2)c1
Ki (Orexin receptor type 2): 29 nM | Ki [5]: 96 nM

CN1CCN(Cc2ccc(C(=O)Nc3cccc(Nc4nccc(-c5cccnc5)n4)c3)cc2)CC1
IC50 (Protein kinase C (PKC)): > 100000 nM | IC50 [6]: > 100000 nM | IC50 [7]: 200 nM | IC50 (BCR/ABL1): 100 nM

COc1cccc(OC)c1C(=O)N1CCCN(c2nc3ccc(Cl)cc3s2)CC1
Ki [5]: 150 nM

Cc1ccc(NC(=O)c2ccc(CN3CCN(C)CC3)cc2)cc1Nc1nccc(-c2cccnc2)n1 [IMATINIB]
IC50 [7]: 50 nM

CC(=O)[C@H]1CCC2C3CC[C@H]4C[C@](C)(O)CC[C@]4(C)C3CC[C@@]21C (some centres not stated)
IC50 [4]: 80 nM

Cc1ccc(-c2ncc(Cl)cc2-c2ccc(S(C)(=O)=O)cc2)cn1 [ETORICOXIB]
half-life [8]: 2 h

Cc1ccc(-c2ncccn2)c(C(=O)N2C[C@H](COc3ccc(F)cn3)CC[C@H]2C)c1 [FILOREXANT]
bioavailability [9]: 25% | bioavailability [10]: 26% | solubility [2]: 192 µM

Cc1ccc(-n2nccn2)c(C(=O)N2C[C@H](COc3ccc(F)cn3)CC[C@H]2C)c1
bioavailability [9]: < 10% | solubility [2]: < 24 µM

O=c1[nH]nc(CN2CCO[C@H](OCc3cc(C(F)(F)F)cc(C(F)(F)F)c3)[C@@H]2c2ccc(F)cc2)[nH]1
half-life [11]: 9 h | half-life [12]: 3 h | half-life [13]: 3 h | half-life [14]: 3 h

CC[C@H](C)C(=O)O[C@H]1C[C@@H](C)C=C2C=C[C@H](C)[C@H](CC[C@@H]3C[C@@H](O)CC(=O)O3)[C@H]21 [LOVASTATIN]
IC50 [15]: 2.2 nM

Cc1ccc(-c2cc(C(F)(F)F)nn2-c2ccc(S(N)(=O)=O)cc2)cc1 [CELECOXIB]
half-life (clinical): 12 h | half-life [16]: 3.5 h
